Measured values published in US7037644B1, “Means and methods for monitoring non-nucleoside reverse transcriptase inhibitor antiretroviral therapy and guiding therapeutic decisions in the treatment of HIV/AIDS” (ViroLogic, Inc., priority 1998, dated 2006).
Several values for one entry are separate records, joined by “and”; a condition that tells them apart may be missing. Equal entries are not always repeated. Entries after “also recorded” stand apart in the source; their conditions may differ.

Experiments:
Assay in all cases: Phenotypic susceptibility assay (site directed mutant RTV)
Type in all cases: cell-based, HIV-1
Y181C-A98G-RTV = conditions: for loss of susceptibility (fold, IC50) vs wild type control RTV: Y181C and A98G; for change in susceptibility: mutations at codons 181 and 98
Excerpt: (§1) The resistance test vectors containing a functional luciferase gene cassette were constructed and host cells were transfected with the resistance test vector DNA. The resistant test vectors contained patient-derived reverse transcriptase and protease sequences that were either susceptible or resistant to the antiretroviral agents, such as nucleoside reverse transcriptase inhibitors, non-nucleoside reverse transcriptase inhibitors and protease inhibitors. The resistance test vector viral particles produced by transfecting the resistance test vector DNA into host cells, either in the presence or absence of protease inhibitors, were used to infect target host cells grown either in the absence of NRTI or NNRTI or in the presence of increasing concentrations of the drug. The amount of luciferase activity produced in infected target host cells in the presence of drug was compared to the amount of luciferase produced in infected target host cells in the absence of drug. Drug resistance was measured as the amount of drug required to inhibit by 50% the luciferase activity detected in the absence of drug (inhibitory concentration 50%, IC50). The IC50 values were determined by plotting percent drug inhibition vs. log10 drug concentration.
(§2) Host cells were seeded in 10-cm-diameter dishes and were transfected several days after plating with resistance test vector plasmid DNA and the envelope expression vector. Transfections were performed using a calcium-phosphate precipitation procedure. The cell culture media containing the DNA precipitate was replaced with fresh medium, from one to 24 hours, after transfection. Cell culture media containing resistance test vector viral particles was harvested one to four days after transfection and was passed through a […] filter before being stored at […]. HIV capsid protein (p24) levels in the harvested cell culture media were determined by an EIA method as described by the manufacturer (SIAC; Frederick, Md.). Before infection, target cells (293 and 293/T) were plated in cell culture media. Control infections were performed using cell culture media from mock transfections (no DNA) or transfections containing the resistance test vector plasmid DNA without the envelope expression plasmid. One to three or more days after infection the media was removed and cell lysis buffer (Promega) was added to each well. Cell lysates were assayed for luciferase activity (FIG. 3). The inhibitory effect of the drug was determined using the following equation: % luciferase inhibition=1−(RLUluc [drug]÷RLUluc)×100 where RLUluc [drug] is the relative light unit of luciferase activity in infected cells in the presence of drug and RLUluc is the Relative Light Unit of luciferase activity in infected cells in the absence of drug. IC50 values were obtained from the sigmoidal curves that were generated from the data by plotting the percent inhibition of luciferase activity vs. the log10 drug concentration. The drug inhibition curves are shown in (FIG. 3).
The Y181C and A98G mutations were introduced alone and in combination into resistance test vectors using the mega-primer method for site-directed mutagenesis (Sakar and Sommar, Ibid.). Resistance test vectors containing the Y181C mutation (Y181C-RTV) and the A98G mutation (A98G-RTV) and both mutations (Y181C-A98G-RTV) were then tested using the phenotypic assay described earlier and the results were compared to those determined using a genetically defined resistance test vector that was wild type at position 181 and 98. We determined the pattern of phenotypic susceptibility to the NNRTIs, delavirdine, neviraphine and efavirenz, in the three vectors.

[1] = test system: RTV with P225H plus K103N, Y181C or both; conditions: P225H with K103N and/or Y181C vs RTV lacking P225H; also statements 'codon 225 alone or in combination with 103'
Excerpt: as §1, §2
(§3) Genotypic changes that are observed to correlate with changes in phenotypic patterns of drug susceptibility are evaluated by construction of resistance test vectors containing the specific mutation on a defined, wild-type (drug susceptible) genetic background. Mutations may be incorporated alone and/or in combination with other known drug resistance mutations that are thought to modulate the susceptibility of HIV to a certain drug or class of drugs. Mutations are introduced into the resistance test vector through any of the widely known methods for site-directed mutagenesis. In one embodiment of this invention the mega-primer PCR method for site-directed mutagenesis is used. […]

P236L-RTV = conditions: P236L alone vs wild type reference RTV; also statements 'codon 236 alone or in combination'
Excerpt: as §1, §2, §3

V189L-RTV = conditions: V189L alone
Excerpt: as §1, §2
(§4) The mutations V106A, V189L, V181C an F227L were introduced alone and in combination into resistance test vectors using the mega-primer method for site-directed mutagenesis (Sakar and Sommar, Ibid.). Resistance test vectors containing the V106A mutation (V106A-RTV), the V189L mutation (V189L-RTV), the V181C mutation (V181C-RTV) and E227L mutation (F2271-RTV) and two mutations (V106A-Y181C-RTV) and (V106A-V189L-RTV) and (V106A-F227-RTV) and (V181C-F227-RTV) and three mutations, (V106A-Y181C-F227L-RTV) were then tested using the phenotypic assay described earlier and the results were compared to those determined using a genetically defined resistance test vector that was wild type at positions 106, 189, 181 and 227. We determined the pattern of phenotypic susceptibility to the NNRTIs, delavirdine, nevirapine and efavirenz, in all nine vectors.

V106A-Y181C-F227L-RTV = conditions: for loss of susceptibility (fold, IC50) vs wild type control RTV: V106A, Y181C and F227L; for change in susceptibility: mutations at 106 and 181 and 227
Excerpt: as §1, §2, §4

V106A-Y181C-RTV = conditions: for loss of susceptibility (fold, IC50) vs wild type control RTV: V106A and Y181C; for change in susceptibility: mutations at 106 and 181
Excerpt: as §1, §2, §4

V106A-V189L-RTV = conditions: for change in susceptibility (fold, IC50) vs wild type control RTV: V106A and V189L; for change in susceptibility: mutations at 106 and 189
Excerpt: as §1, §2, §4

V106A-F227-RTV = conditions: for loss of susceptibility (fold, IC50) vs wild type control RTV: V106A and F227L; for change in susceptibility: mutations at 106 and 227
Excerpt: as §1, §2, §4

Y181C-F227L-RTV = conditions: for change in susceptibility (fold, IC50) vs wild type control RTV: Y181C and F227L, below 1 = increased susceptibility; for change in susceptibility: mutations at 181 and 227
Excerpt: as §1, §2, §4

F227L-RTV = conditions: F227L alone; below 1 = increased susceptibility
Excerpt: as §1, §2, §4

V106A-RTV = conditions: V106A alone
Excerpt: as §1, §2, §4

K103N-RTV = conditions: for change in susceptibility: K103N; for loss of susceptibility (fold, IC50) vs wild type control RTV: K103N alone
Excerpt: as §1, §2
The K101E, K103N and G190A mutations were introduced alone and in combination into resistance test vectors using the mega-primer method for site-directed mutagenesis (Sakar and Sommar, Ibid.).
The mutations Y188L, L100I and K103N were introduced alone and in combinationn into resistance test vectors using the mega-primer method for site-directed mutagenesis (Sakar and Sommar, Ibid.).

SMILES	loss of susceptibility (fold, IC50) vs wild type control RTV (Y181C-A98G-RTV)	change in susceptibility (Y181C-A98G-RTV)	change in susceptibility [1]	change in susceptibility (P236L-RTV)	change in susceptibility (fold, IC50) vs wild type control RTV (V189L-RTV) [fold]	loss of susceptibility (fold, IC50) vs wild type control RTV (V106A-Y181C-F227L-RTV)	change in susceptibility (V106A-Y181C-F227L-RTV)	loss of susceptibility (fold, IC50) vs wild type control RTV (V106A-Y181C-RTV)	change in susceptibility (V106A-Y181C-RTV)	change in susceptibility (fold, IC50) vs wild type control RTV (V106A-V189L-RTV) [fold]	change in susceptibility (V106A-V189L-RTV)	loss of susceptibility (fold, IC50) vs wild type control RTV (V106A-F227-RTV)	change in susceptibility (V106A-F227-RTV)	change in susceptibility (fold, IC50) vs wild type control RTV (Y181C-F227L-RTV) [fold]	change in susceptibility (Y181C-F227L-RTV)	change in susceptibility (fold, IC50) vs wild type control RTV (F227L-RTV)	change in susceptibility (fold, IC50) vs wild type control RTV (V106A-RTV) [fold]	change in susceptibility (K103N-RTV)	loss of susceptibility (fold, IC50) vs wild type control RTV (K103N-RTV) [fold]
CC(C)Nc1cccnc1N1CCN(C(=O)c2cc3cc(NS(C)(=O)=O)ccc3[nH]2)CC1 [delavirdine]	240 fold	significant decrease	more susceptible; also recorded: increase; also recorded: decreases the amount of delavirdine resistance	less susceptible; also recorded: significant reduction; also recorded: decreased susceptibility; also recorded: decrease	1.8	50 fold	moderate decrease	100 fold	significant decrease	3	slight decrease; also recorded: alight decrease	3 fold	slight decrease	0.89	increase	0.03 fold	5	reduced susceptibility; also recorded: resistance	50
O=C1Nc2ccc(Cl)cc2[C@@](C#CC2CC2)(C(F)(F)F)O1 [efavirenz]	7 fold	substantial decrease; also recorded: slight decrease	little or no change	no effect	1.3	12 fold	slight decrease	4 fold	slight decrease	1	no change	8 fold	slight decrease	0.99	increase	0.48 fold and 0.4 fold	1.7		30
Cc1ccnc2c1NC(=O)c1cccnc1N2C1CC1 [nevirapine]	greater than 800 fold	substantial decrease	did not significantly change; also recorded: little or no change; also recorded: does not decrease; also recorded: no effect	no significant change; also recorded: little or no change; also recorded: little or no reduction; also recorded: no reduction	1.3	greater than 800 fold	substantial decrease	greater than 800 fold	substantial decrease	50	moderate decrease	greater than 800 fold	substantial decrease	285	significant decrease	3 fold	60	reduced susceptibility; also recorded: resistance	55
